Here are results for six compounds from US20070191485A1, “Active oxygen scavenging composition including citrulline” (Nara Institute of Science and Technology, priority 2001, published 2007).

Structures are written as SMILES. Where two headings read alike, the source gives them in different places.

Assay [1] has as its system malate dehydrogenase (MDH). In words: Effect of solutes on enzymatic activity of malate dehydrogenase (MDH). The assay is classed as biochemical, wild water-melon (Citrullus lanatus sp. No. 101117-1). How it is done:
(§1) Safety of citrulline was compared with that of arginine, by investigation of inhibition on enzymatic activities of malate dehydrogenase (MDH) and lactate dehydrogenase (LDH), caused by high concentration citrulline and arginine. Chloride ion was used as ion pair for arginine, and assay on potassium chloride was performed to evaluate effect of the chloride ion as well.
(§2) Leaf tissue derived from wild water-melon (Citrullus lanatus sp. No. 101117-1) was fractured under cooling with liquid nitrogen. Then after extraction with extraction buffer (50 mM Tris-HCl, pH=7.5, 5 mM DTT, 5 μg/ml BSA, 15% glycerol), supernatant obtained by centrifugation at 10,000 g for 5 minutes was used as crude extraction fraction of malate dehydrogenase (MDH). Pig purified authentic enzyme available from Oriental Co., was used as lactate dehydrogenase (LDH). MDH reaction solution contained 100 mM Tris-HCl pH 7.5, 150 μM NADH, 250 μM oxaloacetic acid and 10 μL of enzyme solution, and the total volume of the solution was adjusted to 1 mL. As LDH reaction solution, a mixture containing 10 mM Tris-HCl pH 7.5, 150 μM NADH, 250 μM lithium pyruvate and 10 μL of enzyme solution was used. When effect of various kinds of solutes, e.g. citrulline, on enzymatic activity is to be investigated, pH of the solution was re-adjusted to 7.5 by using KOH after addition of the solute at various concentration. The reaction started at 25° C. by addition of substrate, then initial rate was determined by alteration of absorbance at 340 nm, accompanied by decrease of NADH. Incidentally, in FIG. 2 and FIG. 3, white columns indicate the results of citrulline, black columns indicate those of arginine chloride, and hatched columns indicate those of potassium chloride, respectively.

Assay [2] deals with lactate dehydrogenase (LDH). In words: Effect of solutes on enzymatic activity of lactate dehydrogenase (LDH). It counts as biochemical, Pig. How it is done:
as §1, §2

Assay [3] in a line: Kinetic analysis of reaction with hydroxyl radical (competition with hydroxylation of salicylic acid). To be noted: for Reaction rate constant (with hydroxyl radical): calculated from competitive reaction theory, mannitol as standard. How it is done: To evaluate ability of citrulline as an active oxygen scavenger, reaction rate between citrulline and hydroxyl radical was determined. Generation of hydroxyl radical was performed by a system using ascorbic acid and hydrogen peroxide. Here hydroxylation of salicylic acid was used as an index for radical generation. The reaction mixture contained 40 mM of K-Pi buffer, pH 7.4, 0.26 mM of ascorbate, 0.15 mM of FeEDTA, 0.6 mM of H2O2, 2 mM of salicylate and various compatible solutes, then the total volume was adjusted to 400 μL. After reaction at 25° C. for 90 minutes, reaction product of salicylic acid and a hydroxyl radical (namely, 2,3-dihydroxybenzoic acid) was altered to its chromogenic derivative. Then it was determined by absorbance at 510 nm. As the result, the secondary reaction rate constant on reaction of citrulline and hydroxyl radical was calculated from competitive reaction theory. As the standard reaction rate constant, a reported value of mannitol (1.7×10^9 M^−1 s^−1) was used.
The secondary reaction rate constants between the solutes and hydroxyl radical were roughly calculated.

Another assay deals with pyruvate kinase (PK). In words: Protection of pyruvate kinase (PK) activity from injury by hydroxyl radical. It counts as biochemical, porcine. To be noted: after 120 minutes (about 36% without citrulline). The method, then:
The ability of citrulline to protect bio-molecules, such as enzymes or nucleic acids, from hydroxyl radical was investigated. That is, investigation on the effect of hydroxyl radical exerted to enzymatic activity of pyruvate kinase (PK) was performed. Here, hydroxyl radical was generated by a system using ascorbic acid and hydrogen peroxide. The inactivation mixture contained 100 mM of Tris-HCl buffer (pH 7.4), 2.5 U of porcine PK (available from Oriental CO.), 0.2 mM of ascorbate, 0.15 mM of FeEDTA, 0.6 mM of H2O2 and citrulline at various concentrations. Then the total volume was adjusted to 250 μL. The inactivation reaction started by adding H2O2 at 25° C. and 10 μL of aliquot was sampled at constant intervals. Then residual activity of the enzyme was determined. The reaction mixture for measurement of enzymatic activity contained 80 mM of Tris-HCl buffer (pH 7.4), 7.5 mM of MgCl2, 75 mM of KCl, 3.75 mM of ADP, 0.15 mM of NADH, 10 U of porcine LDH, 0.8 mM of PEP and 10 μL of inactivated PK enzyme. The reaction started by addition of substrate at 25° C., and initial rate was measured by alteration of absorbance at 340 nm, accompanied by increase or decrease of NADH. In FIG. 5, ∘ indicates absence of citrulline, ● indicates presence of 200 mM citrulline, ▴ indicates presence of 400 mM citrulline, and ▪ indicates without generation of active oxygen, respectively.

A further assay has as its system circular plasmid DNA. Put plainly: Protection of circular plasmid DNA from injury by hydroxyl radical (agarose gel electrophoresis). The settings on record: after 2 hours. The method, then: Moreover, the effect of citrulline to prevent DNA from active oxygen injury was investigated. A solution containing 200 ng of circular plasmid DNA and various concentrations of citrulline was prepared and hydroxyl radical was generated by addition of 3 mM of H2O2 and 0.01 mM of FeEDTA. Then injury exerted on DNA was evaluated by agarose gel electrophoresis after 2 hours. The results were shown in FIG. 6 and lanes 1 to 7 indicated following experimental systems, respectively. In FIG. 6, lane 1 indicates molecular marker for electrophoresis. Lane 2 indicates a result untreated plasmid DNA. Lane 3 indicates a result from an experimental system wherein trivalent iron is added solely. Lane 4 indicates a result from an experimental system wherein hydroxyl radical was generated by addition of trivalent iron and hydrogen peroxide. Lane 5 indicates a result from an experimental system wherein 50 mM of citrulline was added to the system of lane 4 (the system with generation of active oxygen) to eliminate the generated active oxygen. Lane 6 indicates a result from an experimental system wherein 100 mM of citrulline was added to the system of lane 4 (the system with generation of active oxygen) to eliminate the generated active oxygen. Lane 7 indicates a result from an experimental system wherein 200 mM of citrulline was added to the system of lane 4 (the system with generation of active oxygen) to eliminate the generated active oxygen.

For assay [4] the following is noted: reported value used as the standard for calculation, cited from earlier work.

As for `NC(=O)NCCC[C@H](N)C(=O)O` [Citrulline, citrulline], the “inhibitory effect on malate dehydrogenase (MDH)” value in assay [1] (high concentration of solute) is “did not cause any inhibitory effect”. For the same compound, the “MDH activity, % of control” value in assay [1] (in the presence of 200 mM) is recorded as “about 109%”. Further, the “inhibitory effect on lactate dehydrogenase (LDH) activity” value in assay [2] (high concentration of solute) was “not significant”. Also, the “decrease of LDH enzymatic activity” value in assay [2] (in the presence of 600 mM) was “about 10%”. For the same compound, the “Reaction rate constant (with hydroxyl radical)” value in assay [3] is 2.9e+09 M⁻¹ s⁻¹. Moreover, the “potency as a scavenger of hydroxyl radical (FIG. 4)” value in assay [3] (compared with glycinebetaine, proline, mannitol) is “most significant among the four compatible solutes”. Further, in assay [3] (roughly calculated), the “calculated ID50 value (secondary reaction rate constant with hydroxyl radical)” value is listed as “about 3×10^9 M^−1 s^−1”. The “residual activity of PK, % of the initial activity” value is on record as 61% in the assay on pyruvate kinase (PK) (200 mM citrulline) and 74% with pyruvate kinase (PK) (400 mM citrulline). Besides, the “abscission of DNA” value with circular plasmid DNA (50 mM citrulline (Lane 5)), in the assay on circular plasmid DNA (100 mM citrulline (Lane 6)) and in the assay on circular plasmid DNA (200 mM citrulline (Lane 7)) was “markedly reduced” each time.
For the compound `C[N+](C)(C)CC(=O)O` [Glycinebetain, glycinebetaine, reference compound], the “Reaction rate constant (with hydroxyl radical)” value in assay [3] was 2.1e+07 M⁻¹ s⁻¹.
In the case of `OC[C@@H](O)[C@@H](O)[C@H](O)[C@H](O)CO` [Mannitol, mannitol], the “Reaction rate constant (with hydroxyl radical), reported standard value” in assay [4] and in assay [4] (listed as mannitol) was 1.7e+09 M⁻¹ s⁻¹ each time.
For the compound `O=C(O)[C@@H]1CCCN1` [Proline, proline, reference compound], in assay [3], the “Reaction rate constant (with hydroxyl radical)” value is 3e+08 M⁻¹ s⁻¹.
The same measure, in the same setting: the value for `O=C(O)c1ccccc1O` [Salicylic acid, salicylic acid, reference compound] was 6.3e+09 M⁻¹ s⁻¹.
For the compound `[Cl-].[K+]` [potassium chloride, reference compound], the “MDH enzymatic activity, % of the control activity” value in assay [1] (in the presence of 600 mM) was found to be 21%. The “LDH enzymatic activity, % of the control activity” value in assay [2] (in the presence of 600 mM) was 64%.
